# Test results as given in ChEMBL document CHEMBL1201862, “PubChem BioAssay data set” (2004).
#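 Assay format: 96-well plates, 48-hour exposure. Abbreviation: GI50, concentration required for 50% inhibition of growth.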 The source made the active and inactive calls. Cut-off read from the data, not from the text of the source: active = GI50 up to about 1.1 µM and inactive = higher.
# Assays:
# Experiment in all cases: inhibition of tumour cell growth, NCI panel, 48 h
# NCI/ADR-RES = test system: NCI/ADR-RES
# CAKI-1 = test system: CAKI-1
# UACC-62 = test system: UACC-62
# SN12C = test system: SN12C
# OVCAR-4 = test system: OVCAR-4
# HCT-116 = test system: HCT-116
# MDA-N = test system: MDA-N
# LOX IMVI = test system: LOX IMVI
# Malme-3M = test system: Malme-3M
# RPMI-8226 = test system: RPMI-8226
# OVCAR-8 = test system: OVCAR-8
# HCC 2998 = test system: HCC 2998
# SF-539 = test system: SF-539
# BT-549 = test system: BT-549
# PC-3 = test system: PC-3
# IGROV-1 = test system: IGROV-1
# SW-620 = test system: SW-620
# M14 = test system: M14
# OVCAR-5 = test system: OVCAR-5
# OVCAR-3 = test system: OVCAR-3
SMILES,GI50 (NCI/ADR-RES),GI50 (CAKI-1),GI50 (UACC-62),GI50 (SN12C),GI50 (OVCAR-4),GI50 (HCT-116),GI50 (MDA-N),GI50 (LOX IMVI),GI50 (Malme-3M),GI50 (RPMI-8226),GI50 (OVCAR-8),GI50 (HCC 2998),GI50 (SF-539),GI50 (BT-549),GI50 (PC-3),GI50 (IGROV-1),GI50 (SW-620),GI50 (M14),GI50 (OVCAR-5),GI50 (OVCAR-3)
Oc1ccc(C(c2ccc(O)cc2)c2ccc(O)cc2)cc1,18.9 µM (inactive),16.1 µM (inactive),14.5 µM (inactive),20.3 µM (inactive),9.71 µM (inactive),16.8 µM (inactive),25.9 µM (inactive),19.3 µM (inactive),16.5 µM (inactive),27.2 µM (inactive),15.6 µM (inactive),18 µM (inactive),20.8 µM (inactive),20.5 µM (inactive),24 µM (inactive),14.3 µM (inactive),26.8 µM (inactive),–,–,–
COC1CC2C=CC3C4OC2(/C(C)=C/C(C)C(C(C)O)OC1=O)C3C(O)C(C)C4OC(=O)c1ccc[nH]1 (stereo unspecified),66.2 µM (inactive),> 100 µM (inactive),> 100 µM (inactive),> 100 µM (inactive),74 µM (inactive),49.3 µM (inactive),45.5 µM (inactive),64 µM (inactive),–,35.6 µM (inactive),48.9 µM (inactive),74.6 µM (inactive),59.6 µM (inactive),81.5 µM (inactive),46.6 µM (inactive),> 100 µM (inactive),> 100 µM (inactive),> 100 µM (inactive),> 100 µM (inactive),> 100 µM (inactive)
CC(=O)O[C@H]1C(=O)[C@@]2(C)[C@H]([C@H](OC(=O)c3ccccc3)[C@]3(O)C[C@H](OC(=O)[C@H](O)[C@@H](NC(=O)c4ccc(N)cc4)c4ccccc4)C(C)=C1C3(C)C)[C@]1(OC(C)=O)CO[C@@H]1C[C@@H]2O,15.3 µM (inactive),4.66 µM (inactive),0.00815 µM (active),–,> 31.8 µM (inactive),< 0.005 µM (active),< 0.005 µM (active),< 0.005 µM (active),–,< 0.005 µM (active),0.0105 µM (active),< 0.005 µM (active),< 0.005 µM (active),0.0384 µM (active),< 0.005 µM (active),0.014 µM (active),< 0.005 µM (active),0.0188 µM (active),0.00687 µM (active),< 0.005 µM (active)
CC(=O)OCC(OC(C)=O)C(OC(C)=O)C(OC(C)=O)C(C=NN(C(C)=O)S(=O)(=O)c1ccc(/C=C2\NC(=O)NC2=O)cc1)OC(C)=O (stereo unspecified),> 100 µM (inactive),> 100 µM (inactive),> 100 µM (inactive),> 100 µM (inactive),> 100 µM (inactive),> 100 µM (inactive),> 100 µM (inactive),> 100 µM (inactive),> 100 µM (inactive),> 100 µM (inactive),> 100 µM (inactive),> 100 µM (inactive),–,> 100 µM (inactive),> 100 µM (inactive),> 100 µM (inactive),> 100 µM (inactive),> 100 µM (inactive),> 100 µM (inactive),> 100 µM (inactive)
CCCCCCCCCCCCP(=O)(O)OCC(N)C(=O)O (stereo unspecified),31.4 µM (inactive),49.9 µM (inactive),–,18.9 µM (inactive),76.2 µM (inactive),13.3 µM (inactive),21.4 µM (inactive),24.9 µM (inactive),> 100 µM (inactive),30.9 µM (inactive),35.5 µM (inactive),30.5 µM (inactive),20.7 µM (inactive),29.6 µM (inactive),16 µM (inactive),30.1 µM (inactive),40.3 µM (inactive),48.8 µM (inactive),34.1 µM (inactive),18.7 µM (inactive)
COc1nc2c(c(=O)n1C)N=C(c1ccc(Cl)cc1)CC(c1ccccc1)N2 (stereo unspecified),22.2 µM (inactive),26.9 µM (inactive),17.6 µM (inactive),21.7 µM (inactive),13.3 µM (inactive),22.7 µM (inactive),18.8 µM (inactive),21.2 µM (inactive),–,24 µM (inactive),26.8 µM (inactive),17.7 µM (inactive),17.7 µM (inactive),27.4 µM (inactive),37.7 µM (inactive),17.2 µM (inactive),46.3 µM (inactive),32.9 µM (inactive),25.6 µM (inactive),35.1 µM (inactive)
C=C(C)[C@@H]1CCc2c(c(C)cc(O)c(=O)c2O)C1,0.583 µM (active),0.13 µM (active),1.6 µM (inactive),0.363 µM (active),0.146 µM (active),0.156 µM (active),3.08 µM (inactive),0.695 µM (active),3.43 µM (inactive),3.57 µM (inactive),0.706 µM (active),1.76 µM (inactive),0.6 µM (active),8.95 µM (inactive),3.85 µM (inactive),0.179 µM (active),0.643 µM (active),1.47 µM (inactive),> 73.1 µM (inactive),–
CC(C)=C[C@H]1CCC2(OCCO2)[C@]1(C)COCc1ccccc1,36.8 µM (inactive),32 µM (inactive),–,24.5 µM (inactive),33.8 µM (inactive),29.9 µM (inactive),33.7 µM (inactive),17.2 µM (inactive),23.9 µM (inactive),18.2 µM (inactive),38.6 µM (inactive),16.4 µM (inactive),21.7 µM (inactive),42.7 µM (inactive),39.9 µM (inactive),–,29.1 µM (inactive),33.3 µM (inactive),18.4 µM (inactive),22 µM (inactive)
O=C1/C(=C/Cc2ccco2)N=C(c2ccccc2)N1c1nc2ccc(Sc3ccccc3)cc2[nH]1,23.6 µM (inactive),25.4 µM (inactive),20.7 µM (inactive),16.1 µM (inactive),24.2 µM (inactive),17.8 µM (inactive),6.12 µM (inactive),18.8 µM (inactive),–,24.2 µM (inactive),20.9 µM (inactive),16.9 µM (inactive),28.5 µM (inactive),20.3 µM (inactive),22.9 µM (inactive),30.3 µM (inactive),34 µM (inactive),19.7 µM (inactive),25.9 µM (inactive),21.9 µM (inactive)
COC(=O)CC(c1ccccc1)C(C#N)(OP1(=O)OC(c2ccccc2)C(C)N1C)c1ccccc1 (stereo unspecified),50.5 µM (inactive),72.1 µM (inactive),47.5 µM (inactive),30.1 µM (inactive),33.3 µM (inactive),48.4 µM (inactive),54.5 µM (inactive),59.3 µM (inactive),56.1 µM (inactive),24.7 µM (inactive),48 µM (inactive),> 100 µM (inactive),–,64.4 µM (inactive),35.8 µM (inactive),71.9 µM (inactive),62.1 µM (inactive),60 µM (inactive),> 100 µM (inactive),77.1 µM (inactive)
C=C1C[C@@H]2O[C@H]3[C@H]4[C@@H](C[C@@H](C)[C@@H](OC(C)=O)[C@H]42)[C@@H](C)CO[C@@]3(C)[C@H](OC(=O)CCCCCCC)C[C@H]1O,15.9 µM (inactive),14.8 µM (inactive),16.3 µM (inactive),17.3 µM (inactive),12.8 µM (inactive),16.5 µM (inactive),16.7 µM (inactive),13.2 µM (inactive),–,16.1 µM (inactive),16.2 µM (inactive),16.9 µM (inactive),23.4 µM (inactive),17.2 µM (inactive),15.3 µM (inactive),17.5 µM (inactive),21.4 µM (inactive),20 µM (inactive),17.5 µM (inactive),22.5 µM (inactive)
CCOc1cc(NC(C)=O)ccc1C(=O)N/N=C/c1ccco1,> 100 µM (inactive),76.6 µM (inactive),77.3 µM (inactive),> 100 µM (inactive),> 100 µM (inactive),> 100 µM (inactive),> 100 µM (inactive),38.4 µM (inactive),> 100 µM (inactive),78.3 µM (inactive),> 100 µM (inactive),> 100 µM (inactive),89.7 µM (inactive),> 100 µM (inactive),> 100 µM (inactive),94 µM (inactive),> 100 µM (inactive),–,> 100 µM (inactive),> 100 µM (inactive)
Cc1cccc2oc3c(CC(=O)O)cccc3c(=O)c12,> 100 µM (inactive),> 100 µM (inactive),–,> 100 µM (inactive),> 100 µM (inactive),> 100 µM (inactive),> 100 µM (inactive),> 100 µM (inactive),> 100 µM (inactive),> 100 µM (inactive),> 100 µM (inactive),20.5 µM (inactive),> 100 µM (inactive),> 100 µM (inactive),> 100 µM (inactive),> 100 µM (inactive),> 100 µM (inactive),> 100 µM (inactive),–,> 100 µM (inactive)
Cc1cc(O)c2c(c1O)C(=O)c1cccc(O)c1C2=O [ISLANDICIN],> 100 µM (inactive),> 100 µM (inactive),> 100 µM (inactive),> 100 µM (inactive),> 100 µM (inactive),> 100 µM (inactive),> 100 µM (inactive),> 100 µM (inactive),–,> 100 µM (inactive),> 100 µM (inactive),> 100 µM (inactive),> 100 µM (inactive),> 100 µM (inactive),> 100 µM (inactive),> 100 µM (inactive),> 100 µM (inactive),> 100 µM (inactive),> 100 µM (inactive),> 100 µM (inactive)
